From patent US6780891B2, “Tramadol analogs and uses thereof” (Sepracor Inc., priority 2001, dated 2004) come the findings set out here.

As a reminder, the IC50 is the concentration at which inhibition is half-maximal.

Where “and” joins values, the source holds several entries; their conditions need not be identical. Identical values can stand only once. Counter-ions that a name gives are not always drawn.

For one assay, the system named is NE uptake.
Experiment: not given
Conditions: not given
The assay is classed as biochemical, Rat.
As for `COC1(c2cccc(O)c2)CCCCC1CN(C)C` (racemic) [(R,R/S,S)-ODMOMT, (+/−)-cis-Desmethylmethyltramadol], the “Blocking NE uptake compared with racemic tramadol or (S,S)-ODMT” value is “more effective at blocking NE uptake than racemic tramadol or (S,S)-ODMT”.

For `CO[C@@]1(c2cccc(O)c2)CCCC[C@H]1CN(C)C` [(S,S)-ODMOMT, (1S,2S)-(−)-Desmethylmethyltramadol], the “Blocking NE uptake compared with racemic tramadol or (S,S)-ODMT” value is listed as “more effective at blocking NE uptake than racemic tramadol or (S,S)-ODMT”.

On to `COc1cccc(C2(OC)CCCCC2CN(C)C)c1` (racemic) [(R,R/S,S)-OMT, O-Methyltramadol], for which the “Blocking NE uptake compared with racemic tramadol or (S,S)-ODMT” value is recorded as “more effective at blocking NE uptake than racemic tramadol or (S,S)-ODMT”.

The assay is the same for the next values; noted with them: rat hypothalamus, [3H]NE, 20 min./37° C.; read-out: IC50, functional monoamine uptake, NE.
With `CN(C)CC1CCCCC1(O)c1cccc(O)c1` (single isomer, unassigned) [(S,S)-ODMT, HCl, reference compound], the IC50 was determined as 7100 nM.

With `COC1(c2cccc(O)c2)CCCCC1CN(C)C` (racemic) [(R,R/S,S)-ODMOMT, (+/−)-cis-Desmethylmethyltramadol], the IC50 came out at 120 nM.

`CO[C@@]1(c2cccc(O)c2)CCCC[C@H]1CN(C)C` [(S,S)-ODMOMT, (1S,2S)-(−)-Desmethylmethyltramadol]: the IC50 came out at 51 nM.

With `COC1(c2cccc(O)c2)CCCCC1CN(C)C` [(R,R)-ODMOMT, (1R,2R)-(+)-Desmethylmethyltramadol], the IC50 came to 6800 nM.

For the molecule `COc1cccc([C@@]2(OC)CCCC[C@H]2CN(C)C)c1.O=C(O)/C=C/C(=O)O` (relative stereo) [(R,S/S,R)-OMT, (+/−)-trans-O-Methyltramadol Fumaric Acid], the IC50 was determined as 560 nM.

Still in this assay, the particulars now being: read-out: IC50, functional monoamine uptake, NE.
As to `CNCCCC1c2ccccc2C=Cc2ccccc21` [Protriptyline, reference compound], the IC50 is 40 nM and 26 nM.

As for O-methyl tramadol [(S,S)-OMT], the IC50 turned out to be 16000 nM.

In the case of `COc1cccc(C2(OC)CCCCC2CN(C)C)c1` [(R,R)-OMT, (R,R)-(+)-O-Methyltramadol], the IC50 came to 4000 nM.

In the case of `COc1cccc(C2(OC)CCCCC2CN(C)C)c1` (racemic) [(R,R/S,S)-OMT, O-Methyltramadol], the IC50 turned out to be 29 nM.

Another assay deals with T1, κ receptor (Cavia porcellus, UniProt P41144).
T1 construct: Following incubation, the membranes were rapidly filtered under vacuum through glass fiber filters; from tissue
T1 sequence (P41144 whole entry): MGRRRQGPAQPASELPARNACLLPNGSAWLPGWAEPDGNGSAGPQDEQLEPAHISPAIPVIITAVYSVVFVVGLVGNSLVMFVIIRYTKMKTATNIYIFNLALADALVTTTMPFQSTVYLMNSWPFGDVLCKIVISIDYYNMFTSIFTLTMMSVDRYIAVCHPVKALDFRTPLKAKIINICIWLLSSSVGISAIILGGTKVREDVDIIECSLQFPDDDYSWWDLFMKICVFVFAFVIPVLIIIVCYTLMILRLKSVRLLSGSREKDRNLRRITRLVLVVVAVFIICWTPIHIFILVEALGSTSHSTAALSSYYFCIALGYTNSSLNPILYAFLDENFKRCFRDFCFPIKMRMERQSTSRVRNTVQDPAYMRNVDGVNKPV
Nature of the assay: κ opioid receptor binding, [3H]U 69593. The note with it: guinea-pig cerebellum, [3H]U 69593 0.7 nM, 80 minutes/22° C.
In turn, `CN(C)CC1CCCCC1(O)c1cccc(O)c1` (single isomer, unassigned) [(R,R)-ODMT, O-desmethyltramadol, reference compound] registered an IC50 of 1610 nM.

With `COC1(c2cccc(O)c2)CCCCC1CN(C)C` (racemic) [(R,R/S,S)-ODMOMT, (+/−)-cis-Desmethylmethyltramadol], the IC50 was 789 nM.

In turn, `CO[C@@]1(c2cccc(O)c2)CCCC[C@H]1CN(C)C` [(S,S)-ODMOMT, (1S,2S)-(−)-Desmethylmethyltramadol] registered an IC50 of 2440 nM.

As for `COC1(c2cccc(O)c2)CCCCC1CN(C)C` [(R,R)-ODMOMT, (1R,2R)-(+)-Desmethylmethyltramadol], the IC50 came to 427 nM.

In turn, `CN(C)CC1CCCCC1(O)c1cccc(O)c1` (racemic) [(R,R/S,S)-ODMT, O-desmethyltramadol, reference compound] gave an IC50 of 3150 nM.

Another assay deals with T2, δ receptor (Cavia porcellus, UniProt A0A286XTF2).
T2 construct: Following incubation, the membranes were rapidly filtered under vacuum through glass fiber filters; from tissue
T2 sequence (A0A286XTF2 1-366): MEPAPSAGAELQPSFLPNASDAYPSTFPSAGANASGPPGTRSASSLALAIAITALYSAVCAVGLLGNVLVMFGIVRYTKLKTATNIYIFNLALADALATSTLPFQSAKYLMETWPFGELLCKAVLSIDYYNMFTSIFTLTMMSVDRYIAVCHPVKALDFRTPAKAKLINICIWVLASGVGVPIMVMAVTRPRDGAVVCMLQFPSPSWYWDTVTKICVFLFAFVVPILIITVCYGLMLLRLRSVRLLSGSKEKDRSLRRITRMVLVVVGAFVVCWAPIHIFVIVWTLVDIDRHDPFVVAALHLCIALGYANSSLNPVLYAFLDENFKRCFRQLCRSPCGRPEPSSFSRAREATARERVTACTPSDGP
In words: δ opioid receptor binding, [3H]DPDPE.
Conditions: not given
Further details: species or system Guinea-pig.
Turning to `CN(C)CC1CCCCC1(O)c1cccc(O)c1` (single isomer, unassigned) [(R,R)-ODMT, O-desmethyltramadol, reference compound], the IC50 turned out to be 4530 nM.

Consider `COC1(c2cccc(O)c2)CCCCC1CN(C)C` (racemic) [(R,R/S,S)-ODMOMT, (+/−)-cis-Desmethylmethyltramadol], for which the IC50 is 4920 nM.

Take `COC1(c2cccc(O)c2)CCCCC1CN(C)C` [(R,R)-ODMOMT, (1R,2R)-(+)-Desmethylmethyltramadol]: the IC50 stood at 2850 nM.

Take `CN(C)CC1CCCCC1(O)c1cccc(O)c1` (racemic) [(R,R/S,S)-ODMT, O-desmethyltramadol, reference compound]: the IC50 amounted to 7710 nM.

The target in a further assay is T3, μ receptor (Rattus norvegicus, UniProt P33535). Nature of the assay: biochemical. The note with it: IC50, opioid binding, rat cerebral cortex, [3H]DAMGO 1 nM, 60 minutes/22° C.
T3 sequence (P33535 whole entry): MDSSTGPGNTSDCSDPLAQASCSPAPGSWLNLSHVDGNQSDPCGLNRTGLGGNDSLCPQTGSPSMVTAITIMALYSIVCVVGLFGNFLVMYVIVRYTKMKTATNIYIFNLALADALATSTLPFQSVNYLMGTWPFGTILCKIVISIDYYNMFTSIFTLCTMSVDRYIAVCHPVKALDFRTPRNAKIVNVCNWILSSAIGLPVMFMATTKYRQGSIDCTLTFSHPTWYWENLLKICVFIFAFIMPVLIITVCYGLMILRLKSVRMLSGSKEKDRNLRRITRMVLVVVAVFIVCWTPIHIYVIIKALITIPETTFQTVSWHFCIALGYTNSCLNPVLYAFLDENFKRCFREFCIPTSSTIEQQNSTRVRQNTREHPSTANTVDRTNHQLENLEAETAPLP
Regarding `COc1cccc(C2(O)CCCCC2CN(C)C)c1` (racemic) [(R,R/S,S)-Tramadol, reference compound], the IC50 was 8270 nM and 7640 nM.

In turn, `COC1(c2cccc(O)c2)CCCCC1CN(C)C` (racemic) [(R,R/S,S)-ODMOMT, (+/−)-cis-Desmethylmethyltramadol] displayed an IC50 of 56 nM.

As for `CO[C@@]1(c2cccc(O)c2)CCCC[C@H]1CN(C)C` [(S,S)-ODMOMT, (1S,2S)-(−)-Desmethylmethyltramadol], the IC50 was determined as 566 nM.

Molecule `COc1cccc(C2(OC)CCCCC2CN(C)C)c1` [(R,R)-OMT, (R,R)-(+)-O-Methyltramadol] yielded an IC50 of 7670 nM.

For `COC1(c2cccc(O)c2)CCCCC1CN(C)C` [(R,R)-ODMOMT, (1R,2R)-(+)-Desmethylmethyltramadol], the IC50 is 30 nM.

In the case of `COc1cccc(C2(OC)CCCCC2CN(C)C)c1` (racemic) [(R,R/S,S)-OMT, O-Methyltramadol], the IC50 came out at 7870 nM.

The target of a further assay is T3, μ receptor.
Experiment: not given
The settings on record: comparison in words of Table 1 values.
For `COC1(c2cccc(O)c2)CCCCC1CN(C)C` (racemic) [(R,R/S,S)-ODMOMT, (+/−)-cis-Desmethylmethyltramadol], the “Affinity for the μ receptor compared with ODMT and racemic tramadol” value was “comparable to the corresponding enantiomer/racemate of ODMT, and much greater than that of racemic tramadol”.

Regarding `CO[C@@]1(c2cccc(O)c2)CCCC[C@H]1CN(C)C` [(S,S)-ODMOMT, (1S,2S)-(−)-Desmethylmethyltramadol], the “Affinity for the μ receptor compared with ODMT and racemic tramadol” value was “comparable to the corresponding enantiomer/racemate of ODMT, and much greater than that of racemic tramadol”.

On to `COC1(c2cccc(O)c2)CCCCC1CN(C)C` [(R,R)-ODMOMT, (1R,2R)-(+)-Desmethylmethyltramadol], for which the “Affinity for the μ receptor compared with ODMT and racemic tramadol” value is “comparable to the corresponding enantiomer/racemate of ODMT, and much greater than that of racemic tramadol”.

The assay is the same for the next values; noted with them: read-out: IC50, opioid binding, μ; rat cerebral cortex, [3H]DAMGO 1 nM, 60 minutes/22° C.
As to `COc1cccc([C@@]2(OC)CCCC[C@H]2CN(C)C)c1.O=C(O)/C=C/C(=O)O` (relative stereo) [(R,S/S,R)-OMT, (+/−)-trans-O-Methyltramadol Fumaric Acid], the IC50 is 3290 nM.

The next assay has as its system 5-HT uptake. Nature of the assay: Functional monoamine uptake: 5-HT uptake, rat brain synaptosomes. Type of assay: biochemical. The settings on record: comparison in words of Table 1 values.
Regarding `COc1cccc(C2(OC)CCCCC2CN(C)C)c1` [(R,R)-OMT, (R,R)-(+)-O-Methyltramadol], the “Blocking 5-HT uptake compared with racemic tramadol and ODMT” value is “more effective at blocking at 5-HT uptake than racemic tramadol, (R,R)- or (S,S)-ODMT or racemic ODMT”.

In the case of `COc1cccc(C2(OC)CCCCC2CN(C)C)c1` (racemic) [(R,R/S,S)-OMT, O-Methyltramadol], the “Blocking 5-HT uptake compared with racemic tramadol and ODMT” value is “more effective at blocking at 5-HT uptake than racemic tramadol, (R,R)- or (S,S)-ODMT or racemic ODMT”.

`COc1cccc([C@@]2(OC)CCCC[C@H]2CN(C)C)c1.O=C(O)/C=C/C(=O)O` (relative stereo) [(R,S/S,R)-OMT, (+/−)-trans-O-Methyltramadol Fumaric Acid]: the “Blocking 5-HT uptake compared with racemic tramadol and ODMT” value is “more effective at blocking at 5-HT uptake than racemic tramadol, (R,R)- or (S,S)-ODMT or racemic ODMT”.

The assay is the same for the next values; noted with them: rat brain synaptosomes, [3H]5-HT, 15 min./37° C.
“(+/−)-trans-O-Methyldidesmethyltramadol HCl [(R,S/S,R)-NDMOMT]” showed an IC50 of 16000 nM.

Consider `CN(C)CC1CCCCC1(O)c1cccc(O)c1` (single isomer, unassigned) [(R,R)-ODMT, O-desmethyltramadol, reference compound], for which the IC50 was 3300 nM.

In turn, `COC1(c2cccc(O)c2)CCCCC1CN(C)C` (racemic) [(R,R/S,S)-ODMOMT, (+/−)-cis-Desmethylmethyltramadol] showed an IC50 of 2600 nM.

Molecule `CO[C@@]1(c2cccc(O)c2)CCCC[C@H]1CN(C)C` [(S,S)-ODMOMT, (1S,2S)-(−)-Desmethylmethyltramadol] displayed a 50% inhibitory concentration (IC50) of 5000 nM.

In turn, `COc1cccc(C2(OC)CCCCC2CN(C)C)c1` [(R,R)-OMT, (R,R)-(+)-O-Methyltramadol] had an IC50 of 650 nM.

Consider `COC1(c2cccc(O)c2)CCCCC1CN(C)C` [(R,R)-ODMOMT, (1R,2R)-(+)-Desmethylmethyltramadol], for which the IC50 turned out to be 2100 nM.

As for `COc1cccc(C2(OC)CCCCC2CN(C)C)c1` (racemic) [(R,R/S,S)-OMT, O-Methyltramadol], the IC50 was found to be 550 nM.

Take `COc1cccc([C@@]2(OC)CCCC[C@H]2CN(C)C)c1.O=C(O)/C=C/C(=O)O` (relative stereo) [(R,S/S,R)-OMT, (+/−)-trans-O-Methyltramadol Fumaric Acid]: half-maximal inhibition (IC50) required 290 nM.

The molecule `CN(C)CC1CCCCC1(O)c1cccc(O)c1` (racemic) [(R,R/S,S)-ODMT, O-desmethyltramadol, reference compound] registered an IC50 of 4000 nM.

The assay is the same for the next values; noted with them: rat brain synaptosomes, [3H]5-HT, 15 min./37° C.; HCl.
The molecule `CN(C)CC1CCCCC1(O)c1cccc(O)c1` (single isomer, unassigned) [(S,S)-ODMT, HCl, reference compound] showed an IC50 of 4400 nM.

A further assay concerns DA uptake. In words: Functional monoamine uptake: DA uptake, rat corpora striatum synaptosomes. The assay is classed as biochemical. The note with it: [3H]DA, 15 min./37° C. Here is the method: Radioactivity was determined with a scintillation counter (Topcount, Packard) using a liquid scintillation cocktail (Microscint 0, Packard).
These parameters were obtained by Hill equation curve fitting.
Molecule `COc1cccc([C@@]2(OC)CCCC[C@H]2CN(C)C)c1.O=C(O)/C=C/C(=O)O` (relative stereo) [(R,S/S,R)-OMT, (+/−)-trans-O-Methyltramadol Fumaric Acid] gave an IC50 of 7600 nM.
